Measured values published in PubChem BioAssay (NCI).
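How tested: cells in 96-well plates exposed to compound for 48 hours at five concentrations. GI50 is the concentration that inhibits growth by half. TGI is the concentration that stops growth completely.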

Columns and labels:
Experiment in all cases: NCI-60 cell line screen, 48 h; in the data active = GI50 below about 0.43 µM; inactive = the rest
OVCAR-4 ovarian = system: OVCAR-4 ovarian
SK-OV-3 ovarian = system: SK-OV-3 ovarian
SF-295 CNS = system: SF-295 CNS
SR leukemia = system: SR leukemia
IGROV1 ovarian = system: IGROV1 ovarian
HOP-92 NSCLC = system: HOP-92 NSCLC
SNB-75 CNS = system: SNB-75 CNS
HL-60(TB) leukemia = system: HL-60(TB) leukemia
TK-10 renal = system: TK-10 renal
NCI-H23 lung = system: NCI-H23 lung
A549 NSCLC = system: A549 NSCLC
SK-MEL-5 melanoma = system: SK-MEL-5 melanoma
OVCAR-8 ovarian = system: OVCAR-8 ovarian
MOLT-4 leukemia = system: MOLT-4 leukemia
SK-MEL-2 melanoma = system: SK-MEL-2 melanoma
A498 renal = system: A498 renal
HCC-2998 colon = system: HCC-2998 colon
SF-268 CNS = system: SF-268 CNS
UACC-257 melanoma = system: UACC-257 melanoma
NCI/ADR-RES ovarian = system: NCI/ADR-RES ovarian
DU-145 prostate = system: DU-145 prostate
PC-3 prostate = system: PC-3 prostate
786-0 renal = system: 786-0 renal
MDA-MB-231 breast = system: MDA-MB-231 breast
SK-MEL-28 melanoma = system: SK-MEL-28 melanoma
NCI-H522 lung = system: NCI-H522 lung
RPMI-8226 leukemia = system: RPMI-8226 leukemia
KM12 colon = system: KM12 colon
MCF7 breast = system: MCF7 breast
CCRF-CEM leukemia = system: CCRF-CEM leukemia
SNB-19 CNS = system: SNB-19 CNS
MALME-3M melanoma = system: MALME-3M melanoma
SW-620 colon = system: SW-620 colon
UACC-62 melanoma = system: UACC-62 melanoma
COLO 205 colon = system: COLO 205 colon
OVCAR-5 ovarian = system: OVCAR-5 ovarian
EKVX NSCLC = system: EKVX NSCLC
M14 melanoma = system: M14 melanoma
T-47D breast = system: T-47D breast
HCT-116 colon = system: HCT-116 colon
HS 578T breast = system: HS 578T breast
NCI-H460 lung = system: NCI-H460 lung
MDA-MB-435 = system: MDA-MB-435
UO-31 renal = system: UO-31 renal
RXF 393 renal = system: RXF 393 renal
OVCAR-3 ovarian = system: OVCAR-3 ovarian
CAKI-1 renal = system: CAKI-1 renal
HT29 colon = system: HT29 colon
SN12C renal = system: SN12C renal
HCT-15 colon = system: HCT-15 colon
HOP-62 NSCLC = system: HOP-62 NSCLC
LOX IMVI melanoma = system: LOX IMVI melanoma
ACHN renal = system: ACHN renal
BT-549 breast = system: BT-549 breast
K-562 leukemia = system: K-562 leukemia
NCI-H226 lung = system: NCI-H226 lung
U251 CNS = system: U251 CNS

O=C1NOC(c2ccc(O)cc2)(c2ccc(O)cc2)c2ccccc21
inactive: GI50 (OVCAR-4 ovarian) > 100 µM | GI50 (SK-OV-3 ovarian) > 100 µM | GI50 (SF-295 CNS) > 100 µM | GI50 (SR leukemia) > 100 µM | GI50 (IGROV1 ovarian) > 100 µM | GI50 (HOP-92 NSCLC) > 100 µM | GI50 (SNB-75 CNS) > 100 µM | GI50 (HL-60(TB) leukemia) > 100 µM | GI50 (TK-10 renal) > 100 µM | GI50 (NCI-H23 lung) > 100 µM | GI50 (A549 NSCLC) > 100 µM | GI50 (SK-MEL-5 melanoma) > 100 µM | GI50 (OVCAR-8 ovarian) > 100 µM | GI50 (MOLT-4 leukemia) > 100 µM | GI50 (SK-MEL-2 melanoma) > 100 µM | GI50 (A498 renal) > 100 µM | GI50 (HCC-2998 colon) > 100 µM | GI50 (SF-268 CNS) > 100 µM | GI50 (UACC-257 melanoma) > 100 µM | GI50 (NCI/ADR-RES ovarian) > 100 µM | GI50 (DU-145 prostate) > 100 µM | GI50 (PC-3 prostate) > 100 µM | GI50 (786-0 renal) > 100 µM | GI50 (MDA-MB-231 breast) > 100 µM | GI50 (SK-MEL-28 melanoma) > 100 µM | GI50 (NCI-H522 lung) > 100 µM | GI50 (RPMI-8226 leukemia) > 100 µM | GI50 (KM12 colon) > 100 µM | GI50 (MCF7 breast) > 100 µM | GI50 (CCRF-CEM leukemia) > 100 µM | GI50 (SNB-19 CNS) > 100 µM | GI50 (MALME-3M melanoma) > 100 µM | GI50 (SW-620 colon) > 100 µM | GI50 (UACC-62 melanoma) > 100 µM | GI50 (COLO 205 colon) > 100 µM | GI50 (OVCAR-5 ovarian) > 100 µM | GI50 (EKVX NSCLC) > 100 µM | GI50 (M14 melanoma) > 100 µM | GI50 (T-47D breast) > 100 µM | GI50 (HCT-116 colon) > 100 µM | GI50 (HS 578T breast) > 100 µM | GI50 (NCI-H460 lung) > 100 µM | GI50 (MDA-MB-435) > 100 µM | GI50 (UO-31 renal) > 100 µM | GI50 (RXF 393 renal) > 100 µM | GI50 (OVCAR-3 ovarian) > 100 µM | GI50 (CAKI-1 renal) > 100 µM | GI50 (HT29 colon) > 100 µM | GI50 (SN12C renal) > 100 µM | GI50 (HCT-15 colon) > 100 µM | GI50 (HOP-62 NSCLC) > 100 µM | GI50 (LOX IMVI melanoma) > 100 µM | GI50 (ACHN renal) > 100 µM | GI50 (BT-549 breast) > 100 µM | GI50 (K-562 leukemia) > 100 µM | GI50 (NCI-H226 lung) > 100 µM | GI50 (U251 CNS) > 100 µM
> 100 µM: TGI (OVCAR-4 ovarian) | TGI (SK-OV-3 ovarian) | TGI (SF-295 CNS) | TGI (SR leukemia) | TGI (IGROV1 ovarian) | TGI (HOP-92 NSCLC) | TGI (SNB-75 CNS) | TGI (HL-60(TB) leukemia) | TGI (TK-10 renal) | TGI (NCI-H23 lung) | TGI (A549 NSCLC) | TGI (SK-MEL-5 melanoma) | TGI (OVCAR-8 ovarian) | TGI (MOLT-4 leukemia) | TGI (SK-MEL-2 melanoma) | TGI (A498 renal) | TGI (HCC-2998 colon) | TGI (SF-268 CNS) | TGI (UACC-257 melanoma) | TGI (NCI/ADR-RES ovarian) | TGI (DU-145 prostate) | TGI (PC-3 prostate) | TGI (786-0 renal) | TGI (MDA-MB-231 breast) | TGI (SK-MEL-28 melanoma) | TGI (NCI-H522 lung) | TGI (RPMI-8226 leukemia) | TGI (KM12 colon) | TGI (MCF7 breast) | TGI (CCRF-CEM leukemia) | TGI (SNB-19 CNS) | TGI (MALME-3M melanoma) | TGI (SW-620 colon) | TGI (UACC-62 melanoma) | TGI (COLO 205 colon) | TGI (OVCAR-5 ovarian) | TGI (EKVX NSCLC) | TGI (M14 melanoma) | TGI (T-47D breast) | TGI (HCT-116 colon) | TGI (HS 578T breast) | TGI (NCI-H460 lung) | TGI (MDA-MB-435) | TGI (UO-31 renal) | TGI (RXF 393 renal) | TGI (OVCAR-3 ovarian) | TGI (CAKI-1 renal) | TGI (HT29 colon) | TGI (SN12C renal) | TGI (HCT-15 colon) | TGI (HOP-62 NSCLC) | TGI (LOX IMVI melanoma) | TGI (ACHN renal) | TGI (BT-549 breast) | TGI (K-562 leukemia) | TGI (NCI-H226 lung) | TGI (U251 CNS)
